Measurements reported in ChEMBL document CHEMBL1201862, “PubChem BioAssay data set” (2004).
The source made the active and inactive calls. For most assays here, no stated cut-off is given here; in the data, actives have a measured EC50 and inactives only a lower limit.

Tests used:
[1] = target: T1, Heat shock factor protein 1 (Mus musculus, UniProt P38532); experiment: decrease of HSF1-responsive luciferase luminescence – cell-based, NIH3T3, dose retest, confirmation (AID 2382); format: functional;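 further: NIH3T3 fibroblasts with HSF1-driven luciferase reporter stressed by proteasome inhibitor MG132; luminescence from HSF1-driven luciferase expression after 8 hours of MG132 stress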
T1 sequence (P38532 whole entry): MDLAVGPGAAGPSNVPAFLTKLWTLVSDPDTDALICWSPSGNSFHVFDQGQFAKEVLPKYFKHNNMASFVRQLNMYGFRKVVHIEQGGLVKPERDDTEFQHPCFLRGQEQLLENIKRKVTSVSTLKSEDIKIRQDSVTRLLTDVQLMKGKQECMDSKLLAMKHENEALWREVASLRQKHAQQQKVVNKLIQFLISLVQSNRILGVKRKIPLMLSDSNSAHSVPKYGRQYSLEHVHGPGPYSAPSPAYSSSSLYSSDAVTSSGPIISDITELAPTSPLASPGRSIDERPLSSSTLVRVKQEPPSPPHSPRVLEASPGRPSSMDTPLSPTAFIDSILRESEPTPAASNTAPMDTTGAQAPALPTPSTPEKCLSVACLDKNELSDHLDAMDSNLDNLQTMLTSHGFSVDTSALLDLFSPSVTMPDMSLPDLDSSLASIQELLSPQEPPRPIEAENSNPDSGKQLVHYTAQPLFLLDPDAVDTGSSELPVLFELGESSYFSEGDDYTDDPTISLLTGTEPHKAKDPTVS

[2] = target: T2, RNA-binding protein pos-1 (Caenorhabditis elegans, UniProt G5EF15); experiment: disruptors of C. elegans POS-1 RNA interaction – biochemical, fluorescence polarization, dose response (AID 1964);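 further: purified POS-1 fused to maltose binding protein made in E. coli; potency of compounds blocking POS-1 binding to fluorescent RNA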
T2 sequence (G5EF15 whole entry): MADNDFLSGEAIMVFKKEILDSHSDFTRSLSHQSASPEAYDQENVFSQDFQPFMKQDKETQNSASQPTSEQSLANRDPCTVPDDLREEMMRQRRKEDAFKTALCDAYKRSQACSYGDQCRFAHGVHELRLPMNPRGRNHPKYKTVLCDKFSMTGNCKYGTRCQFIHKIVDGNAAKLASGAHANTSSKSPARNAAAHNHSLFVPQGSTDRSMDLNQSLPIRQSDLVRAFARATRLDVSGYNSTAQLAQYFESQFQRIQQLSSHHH

[3] = target: T3, Zinc finger protein mex-5 (Caenorhabditis elegans, UniProt Q9XUB2); experiment: potency of MEX-5 RNA-binding blockers – biochemical, C. elegans, fluorescence polarization, dose response (AID 1960)
T3 sequence (Q9XUB2 whole entry): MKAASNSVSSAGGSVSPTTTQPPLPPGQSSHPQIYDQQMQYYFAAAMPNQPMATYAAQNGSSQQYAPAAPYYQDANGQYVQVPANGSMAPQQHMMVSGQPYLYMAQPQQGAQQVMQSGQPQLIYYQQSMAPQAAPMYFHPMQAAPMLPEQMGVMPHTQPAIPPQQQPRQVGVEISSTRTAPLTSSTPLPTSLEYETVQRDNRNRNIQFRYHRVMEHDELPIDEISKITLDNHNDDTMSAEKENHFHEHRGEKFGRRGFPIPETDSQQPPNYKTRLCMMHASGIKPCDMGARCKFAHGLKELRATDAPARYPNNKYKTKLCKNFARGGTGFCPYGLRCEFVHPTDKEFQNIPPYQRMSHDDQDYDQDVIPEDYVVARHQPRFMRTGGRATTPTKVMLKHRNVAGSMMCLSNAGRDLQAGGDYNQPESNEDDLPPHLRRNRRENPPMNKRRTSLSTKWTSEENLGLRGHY

[4] = target: T4, Replicative DNA helicase DnaB (Mycobacterium tuberculosis, UniProt P9WMR3); experiment: DnaB intein splicing inhibitors, dose response, biochemical, cell-free fluorescence (AID 449749); format: functional
T4 sequence (P9WMR3 whole entry): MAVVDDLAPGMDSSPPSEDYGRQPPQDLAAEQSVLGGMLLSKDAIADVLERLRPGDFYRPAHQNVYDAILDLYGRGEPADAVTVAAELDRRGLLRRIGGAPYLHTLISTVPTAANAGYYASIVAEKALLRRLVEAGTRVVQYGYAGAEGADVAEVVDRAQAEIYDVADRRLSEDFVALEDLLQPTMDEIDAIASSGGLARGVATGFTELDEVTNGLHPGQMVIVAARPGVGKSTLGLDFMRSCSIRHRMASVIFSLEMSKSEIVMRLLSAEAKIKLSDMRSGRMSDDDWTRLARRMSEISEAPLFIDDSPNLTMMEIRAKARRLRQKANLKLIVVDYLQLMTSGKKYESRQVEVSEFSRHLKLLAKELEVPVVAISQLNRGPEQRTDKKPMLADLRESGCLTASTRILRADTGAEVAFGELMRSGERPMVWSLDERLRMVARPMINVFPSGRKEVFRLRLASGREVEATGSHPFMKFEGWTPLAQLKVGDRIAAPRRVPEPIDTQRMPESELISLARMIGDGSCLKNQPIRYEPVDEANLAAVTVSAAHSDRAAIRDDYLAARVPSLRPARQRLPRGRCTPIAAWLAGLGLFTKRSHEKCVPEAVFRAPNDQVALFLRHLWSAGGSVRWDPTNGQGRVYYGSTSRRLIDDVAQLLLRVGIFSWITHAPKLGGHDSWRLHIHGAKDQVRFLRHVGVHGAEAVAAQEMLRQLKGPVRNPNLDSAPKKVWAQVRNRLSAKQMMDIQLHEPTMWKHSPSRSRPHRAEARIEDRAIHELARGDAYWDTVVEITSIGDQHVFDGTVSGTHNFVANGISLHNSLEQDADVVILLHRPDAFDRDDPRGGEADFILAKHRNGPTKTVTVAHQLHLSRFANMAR

Protein RecA = target: T5, Protein RecA (Mycobacterium tuberculosis, UniProt P9WHJ3); experiment: Fluorescence Cell-Free Homogeneous Dose Retest to Identify Inhibitors of RecA-Intein Splicing Activity. [Related pubchem assays (depositor defined):AID2097, AID2223, AID489010, AID492950]; format: functional
T5 sequence (P9WHJ3 whole entry): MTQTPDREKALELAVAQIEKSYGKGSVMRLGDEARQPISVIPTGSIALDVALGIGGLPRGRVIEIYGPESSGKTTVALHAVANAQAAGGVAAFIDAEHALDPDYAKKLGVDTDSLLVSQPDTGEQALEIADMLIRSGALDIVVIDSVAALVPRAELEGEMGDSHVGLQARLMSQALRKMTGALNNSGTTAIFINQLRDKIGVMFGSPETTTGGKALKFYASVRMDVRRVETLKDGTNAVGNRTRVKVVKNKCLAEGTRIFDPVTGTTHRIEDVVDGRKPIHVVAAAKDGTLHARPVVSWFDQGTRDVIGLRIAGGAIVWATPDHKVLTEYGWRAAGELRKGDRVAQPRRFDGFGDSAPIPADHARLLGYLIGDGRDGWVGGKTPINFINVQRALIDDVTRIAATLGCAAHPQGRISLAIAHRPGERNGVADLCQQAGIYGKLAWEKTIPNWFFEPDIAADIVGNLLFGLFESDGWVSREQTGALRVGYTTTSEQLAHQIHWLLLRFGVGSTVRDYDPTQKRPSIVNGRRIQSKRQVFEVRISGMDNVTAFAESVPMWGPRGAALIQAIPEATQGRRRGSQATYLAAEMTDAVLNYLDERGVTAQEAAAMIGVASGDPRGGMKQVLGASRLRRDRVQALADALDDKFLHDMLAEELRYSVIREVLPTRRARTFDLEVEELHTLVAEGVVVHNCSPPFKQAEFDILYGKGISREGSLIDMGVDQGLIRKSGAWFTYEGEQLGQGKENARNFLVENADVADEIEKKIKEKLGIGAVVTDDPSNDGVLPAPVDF

H4 = experiment: Luminescence Cell-Based Dose Response HTS to Identify Activators of 5'UTR Stem-Loop Driven Prion Protein mRNA Translation in H4 Neuroglioblastoma Cells. [Related pubchem assays: 1829 (Project Summary), 1814 (Primary HTS)]; format: functional; details: Homo sapiens
[5] = Luminescence Cell-Based Dose Response HTS to Identify Activators of Luciferase Translation or Activity in H4 […] Cells. [Related pubchem assays: 1829 (Project Summary), 1814 (Primary HTS)]; format: functional
Cytochrome P450 1A2 = target: T6, Cytochrome P450 1A2 (Homo sapiens, UniProt P05177);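 further: PubChem cytochrome P450 panel assay, CYP1A2 panel member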
T6 sequence (P05177 whole entry): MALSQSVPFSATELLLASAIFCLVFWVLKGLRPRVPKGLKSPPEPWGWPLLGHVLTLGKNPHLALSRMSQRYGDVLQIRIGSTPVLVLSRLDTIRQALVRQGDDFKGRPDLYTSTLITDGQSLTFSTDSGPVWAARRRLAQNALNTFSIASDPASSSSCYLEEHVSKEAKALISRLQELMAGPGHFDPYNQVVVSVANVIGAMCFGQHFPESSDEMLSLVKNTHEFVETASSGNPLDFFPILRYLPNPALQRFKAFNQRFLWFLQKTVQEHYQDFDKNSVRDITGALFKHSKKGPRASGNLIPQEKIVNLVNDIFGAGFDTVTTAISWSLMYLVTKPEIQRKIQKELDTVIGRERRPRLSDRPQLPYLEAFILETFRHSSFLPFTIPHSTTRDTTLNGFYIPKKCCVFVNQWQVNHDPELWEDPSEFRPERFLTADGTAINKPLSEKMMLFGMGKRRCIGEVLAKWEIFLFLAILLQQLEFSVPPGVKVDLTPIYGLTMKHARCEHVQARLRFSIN

Row | SMILES | EC50 [1] | EC50 [2] | EC50 [3] | other results
1 | COc1cccc(N2CCN(C(S)=Nc3cc(C)cc(C)c3)CC2)c1 | 94.4 µM (active) |  |  | 
2 | CCOc1ccc2nc(NC(=O)/C=C/c3ccc4c(c3)OCO4)sc2c1 | > 195 µM (not active) |  |  | 
3 | CN1CC=C2C(C#N)=C(N)C(C#N)(C#N)C(c3ccncc3)C2C1 (configuration not stated) |  | 52.9 µM (inconclusive) | 7.73 µM (active) | 
4 | Nc1n[nH]c(Sc2ccc([N+](=O)[O-])cc2[N+](=O)[O-])n1 |  | 85.7 µM (active) | 30.1 µM (active) | 
5 | Cc1n[nH]c2c1C(c1c(C)nn(-c3ccccc3)c1C)C(C#N)=C(N)O2 (configuration not stated) |  |  |  | AC50 [4]: 18.6 µM (active); EC50 (Protein RecA): 12.5 µM (active)
6 | O=C(CC1CCCCC1)NCc1ccccn1 | > 195 µM (not active) |  |  | 
7 | COc1ccc(N2CCN(c3oc(Cc4ccccc4)nc3C#N)CC2)cc1 | > 195 µM (not active) |  |  | 
8 | CN1N=C2c3ccccc3CCC2C1c1ccc(C(F)(F)F)cc1 (configuration not stated) | 79.4 µM (active) |  |  | 
9 | Cc1n[nH]c(N=Nc2ccc(O)cc2)n1 |  | > 300 µM (not active) | 4.83 µM (active) | 
10 | CCOC1(OCC)C(c2ccc(Cl)cc2)C(C#N)(C#N)C1(OCC)OCC (configuration not stated) |  |  |  | AC50 [4]: 148 µM (active); EC50 (Protein RecA): > 380 µM (inconclusive)
11 | CC(C)(C)c1cnnn1-c1ccc(C(=O)CCl)cc1 |  |  |  | AC50 [4]: 4.17 µM (active); EC50 (Protein RecA): 2.89 µM (active)
12 | CCOC(=O)/C(C#N)=C1/SC(C)C(=O)N1c1ccc(Br)cc1 (configuration not stated) |  |  |  | AC50 [4]: 21 µM (active); EC50 (Protein RecA): 11.1 µM (active)
13 | CCCCOc1cccc(C2C(C(=O)c3cccs3)=C(O)C(=O)N2Cc2cccnc2)c1 (configuration not stated) | > 195 µM (not active) |  |  | 
14 | Cn1c2ccccc2c2cnn(CC(=O)N3CCC4(CC3)OCCO4)c(=O)c21 | 39.3 µM (active) |  |  | 
15 | CCCCc1ccc(/C=C2\C(=O)ON=C2c2ccccc2)s1 |  | 68 µM (active) | 87.7 µM (active) | 
16 | CCOC(=O)Cc1nc2ccccc2n(CC#N)c1=O |  | > 300 µM (not active) | > 300 µM (not active) | 
17 | CCOC(=O)[C@]1(C#N)[C@@H]2C=CC(C(C)=O)=CN2[C@@H](C(N)=O)[C@@H]1c1ccsc1 |  | 2.5 µM (active) | 12.3 µM (active) | 
18 | COc1cc2c(cc1OC)C(/C=C(\O)c1ccc(C)cc1)=NCC2 | > 195 µM (not active) |  |  | 
19 | Cc1ccc(N(CC(=O)Nc2ccc(-c3nc4ccc(C)cc4s3)cc2)S(C)(=O)=O)cc1 |  |  |  | EC50 (H4): > 120 µM (not active); EC50 [5]: 1.19 µM (active)
20 | Cc1nc(N2CCN(Cc3ccccc3)CC2)c(C#N)c2c1COC(C)(C)C2 |  | 94.5 µM (active) | 108 µM (active) | 
21 | Cc1ccc(OCCC(=O)OCC(=O)Nc2ccc(N3CCOCC3)cc2)cc1 | > 195 µM (not active) |  |  | 
22 | Cc1ccc(C(=O)C2C(c3ccc(-c4ccccc4[N+](=O)[O-])o3)NC(=O)NC2(O)C(F)(F)F)cc1 (configuration not stated) |  |  |  | AC50 [4]: 5.13 µM (active); EC50 (Protein RecA): 11.6 µM (active)
23 | CCOC(=O)N1CCC(c2cc(=O)n(-c3ccccc3)[nH]2)CC1 |  |  |  | AC50 [4]: 3.66 µM (active); EC50 (Protein RecA): 2.51 µM (active)
24 | CCO/C(C)=N/n1c2nc3ccccc3nc2c2c(=O)n(C3CCCC3)c(C)nc21 |  | > 300 µM (not active) | > 300 µM (not active) | 
25 | Cc1ccc(S(=O)(=O)N/N=C/c2c(C)nn(-c3ccccc3)c2C)cc1 | > 195 µM (not active) |  |  | 
26 | NCCCC(=O)O [GAMMA-AMINOBUTYRIC ACID] | > 195 µM (not active) |  |  | AC50 (Cytochrome P450 1A2): 31.6 µM (inconclusive)
